Laboratory results from patent US20240173440A1, “HIGH PURITY COPPER RADIOPHARMACEUTICAL COMPOSITIONS AND DIAGNOSTIC AND THERAPEUTIC USES THEREOF” (Nuclidium AG, priority 2022, published 2024).
One block for each compound: values may come before it.

Key:
[1] = molecular target: hFAP (Homo sapiens (Human), UniProt Q12884); experiment: Saturation binding on isolated HEK-293.hFAP cell membranes; parameters: Bmax: unit not given here; settings: 37° C.
Protocol: The cells were homogenized using Ultra-Turrax, and the homogenized suspension was centrifuged at 500×g for 10 min at 4° C. The supernatant was collected in centrifuge tubes (Beckman Coulter Inc., Brea, CA, USA). This procedure was then repeated 5 times. The collected supernatant was centrifuged in an ultra-centrifuge (Beckman) at 4° C. for 55 min at 49,000×g. Then, the pellet was re-suspended in 10 mM ice-cold HEPES buffer (pH 7.5), aliquoted, and stored at −80° C. The protein concentration of those membrane suspensions was determined by the Bradford method, BSA as the standard.
Each assay tube contained 170 μL of binding buffer (20 mM HEPES, pH 7.4, containing 4 mM μgCl2, 0.2% BSA, 20 μg/L bacitracin, 20 μg/L PMSF and 200,000 KIU/L aprotinin). The incubation was initiated by adding 30 μL of radioligand solution at 10 times the final concentration and 100 μL of cell membrane suspension to yield 10 μg of protein per well. For the determination of the non-specific binding, 140 μL of the above binding buffer was added along with 30 μL of FAPI-46 to obtain (0.1 mM). Bound fractions were plotted versus the corresponding radioligand concentration at equilibrium. The dissociation constant (KD) and maximal binding capacity (Bmax) values were calculated using GraphPad Software Inc., Prism 7, San Diego, CA, USA (Table 33 and FIG. 21).

[2] = test system: HT-1080.hFAP and HT-1080.wt xenografts; experiment: Quantitative biodistribution in HT-1080.hFAP and HT-1080.wt xenografted mice; assay type: in vivo; settings: for Biodistribution HT-1080.wt: FAP-negative tumor; for Biodistribution HT-1080.hFAP: FAP-positive tumor
Protocol: The tumors were allowed to grow to an average volume of 100-200 mm3.
Biodistribution Studies: The xenografted mice were randomized (n=5 per group) and injected intravenously via the tail vein with the ^61Cu-labeled radioligands (100 μL, […], 0.8-1MBq). Mice were euthanized 1h and 4h pi. by CO2 asphyxiation. Organs of interest and blood were collected, rinsed of excess blood, blotted dry, weighed, and counted in a […]. The samples were counted against a suitably diluted aliquot of the injected solution as the standard and the results are expressed as the percentage of the injected activity per gram of tissue (0% I.A./g)+SD.

[3] = test system: LNCaP xenografts; experiment: Quantitative biodistribution in LNCaP xenografted mice; assay type: in vivo; settings: LNCap xenograft mice, 1 h after injection
Protocol: The mice were randomly distributed in groups and euthanized at 1 and at 4 hours post-injection. The organs of interest were collected, rinsed, blotted, weighed and counted in a gamma counter. The results are expressed as percentage of injected activity per gram (% IA/g), representing the mean±standard deviation of n=4-8 mice per group and they were obtained by extrapolation from counts of an aliquot taken from the injected solution as standard.
The biodistribution of the [^61Cu]Cu-NODAGA radiotracers was compared with the reference compounds used in patients under identical experimental conditions. The mice were randomly distributed in groups, injected with the radiotracer under investigation and euthanized at 1 and at 4 hours post-injection of the radiotracers under investigation. The organs of interest were collected, rinsed, blotted, weighed and counted in a gamma counter. The results are expressed as percentage of injected activity per gram (% IA/g), representing the mean±standard deviation of all mice per group and they were obtained by extrapolation from counts of an aliquot taken from the injected solution as standard.

[4] = Lipophilicity, log D by shake-flask method (1-octanol/PBS pH 7.4); assay type: physicochemical; settings: shake-flask, Table 17, mean ± SD
Protocol: The radiotracer (1 μM) was added to a 50:50 pre-saturated mixture of 1-octanol and phosphate buffered saline (PBSpH 7.4). The solution was vortexed for 30 min and then centrifuged at 3,000 rpm to achieve a phase separation. Aliquots from each phase were collected and measured in a gamma-counter. The distribution coefficient was calculated as the average of the logarithmic values of the ratio between the radioactivity in the organic and the PBS phase.
Table 17. Lipophilicity expressed as the log distribution coefficient D (log D(Octanol/PBS pH7.4)) of ^61Cu-radiotracers versus ^68Ga-radiotracers (reference radiotracers).
In a pre-lubricated Eppendorf tube, a pre-saturated mixture of 500 μL of 1-octanol and 500 μL of PBS pH 7.4 (phosphate-buffered saline) were added. An aliquot of […] in 10 μL of the radioligand was added to this mixture, shaken for 30 min, and then centrifuged at 3000 rcf for 10 min to achieve phase separation. Aliquots of 100 μL were removed from the 1-octanol and from the PBS phases, and the activity was measured in a […]. The partition coefficient was calculated as the average log ratio value of the radioactivity in the organic fraction and PBS fraction.

[5] = 1 h p.i., HT-1080.hFAP and HT-1080.wt xenografts
[6] = 4 h p.i., HT-1080.hFAP and HT-1080.wt xenografts

Chain of hFAP (Q12884 whole entry): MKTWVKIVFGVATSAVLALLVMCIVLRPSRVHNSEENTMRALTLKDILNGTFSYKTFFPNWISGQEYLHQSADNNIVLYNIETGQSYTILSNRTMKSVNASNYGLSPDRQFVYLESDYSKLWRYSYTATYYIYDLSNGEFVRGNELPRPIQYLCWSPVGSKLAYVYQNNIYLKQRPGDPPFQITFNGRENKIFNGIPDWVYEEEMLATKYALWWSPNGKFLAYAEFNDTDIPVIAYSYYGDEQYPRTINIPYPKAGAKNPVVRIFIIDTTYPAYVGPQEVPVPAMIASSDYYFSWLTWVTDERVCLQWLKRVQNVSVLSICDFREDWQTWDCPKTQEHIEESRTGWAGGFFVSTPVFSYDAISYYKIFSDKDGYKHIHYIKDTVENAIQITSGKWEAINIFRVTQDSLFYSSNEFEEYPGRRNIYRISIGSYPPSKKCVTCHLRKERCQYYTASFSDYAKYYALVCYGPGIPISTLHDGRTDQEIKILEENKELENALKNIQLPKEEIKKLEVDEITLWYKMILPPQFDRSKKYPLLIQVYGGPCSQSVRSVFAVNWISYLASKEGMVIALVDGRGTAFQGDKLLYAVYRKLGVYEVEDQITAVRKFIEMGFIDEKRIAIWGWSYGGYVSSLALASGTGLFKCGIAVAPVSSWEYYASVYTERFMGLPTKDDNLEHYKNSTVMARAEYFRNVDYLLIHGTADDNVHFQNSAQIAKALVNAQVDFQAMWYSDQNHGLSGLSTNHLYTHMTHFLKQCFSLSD

Bmax [1]: 7.7-8.4
Biodistribution Heart ([2]; 1 hour p.i.): 0.6 ± 0.1 % I.A./g
Biodistribution Intestine ([2]; 1 hour p.i.): 0.5 ± 0.1 % I.A./g
Biodistribution Liver ([2]; 1 hour p.i.): 0.6 ± 0.1 % I.A./g
Biodistribution Lung ([2]; 1 hour p.i.): 0.8 ± 0.1 % I.A./g
Biodistribution Muscle ([2]; 1 hour p.i.): 0.9 ± 0.1 % I.A./g
Biodistribution Spleen ([2]; 1 hour p.i.): 0.4 ± 0.1 % I.A./g
Biodistribution Stomach ([2]; 1 hour p.i.): 0.6 ± 0.1 % I.A./g
Biodistribution Adrenal [2, 5]: 1.5 ± 0.3 % IA/g
Biodistribution Blood [2, 5]: 1.2 ± 0.1 % IA/g
Biodistribution Femur [2, 5]: 2.4 ± 0.3 % IA/g
Biodistribution HT1080.hFAP (FAP-positive tumor) [2, 5]: 3.5 ± 1.0 % IA/g
Biodistribution HT1080.wt (FAP-negative tumor) [2, 5]: 1.4 ± 0.2 % IA/g
Biodistribution Heart [2, 5]: 0.6 ± 0.1 % IA/g
Biodistribution Intestine [2, 5]: 0.5 ± 0.1 % IA/g
Biodistribution Kidney [2, 5]: 1.1 ± 0.1 % IA/g
Biodistribution Liver [2, 5]: 0.6 ± 0.1 % IA/g
Biodistribution Lung [2, 5]: 0.8 ± 0.1 % IA/g
Biodistribution Muscle [2, 5]: 0.9 ± 0.1 % IA/g
Biodistribution Pancreas [2, 5]: 1.1 ± 0.2 % IA/g
Biodistribution Spleen [2, 5]: 0.4 ± 0.1 % IA/g
Biodistribution Stomach [2, 5]: 0.6 ± 0.1 % IA/g
Biodistribution Adrenal ([2]; 4 hours p.i.): 0.3 ± 0.1 % I.A./g
Biodistribution Blood ([2]; 4 hours p.i.): 0.5 ± 0.1 % I.A./g
Biodistribution Heart ([2]; 4 hours p.i.): 0.3 ± 0.0 % I.A./g
Biodistribution Intestine ([2]; 4 hours p.i.): 0.3 ± 0.1 % I.A./g
Biodistribution Kidneys ([2]; 4 hours p.i.): 1.0 ± 0.1 % I.A./g
Biodistribution Liver ([2]; 4 hours p.i.): 0.6 ± 0.1 % I.A./g
Biodistribution Lung ([2]; 4 hours p.i.): 0.4 ± 0.0 % I.A./g
Biodistribution Muscle ([2]; 4 hours p.i.): 0.4 ± 0.1 % I.A./g
Biodistribution Pancreas ([2]; 4 hours p.i.): 0.5 ± 0.0 % I.A./g
Biodistribution Spleen ([2]; 4 hours p.i.): 0.2 ± 0.0 % I.A./g
Biodistribution Stomach ([2]; 4 hours p.i.): 0.3 ± 0.1 % I.A./g
Biodistribution Adrenal [2, 6]: 0.3 ± 0.1 % IA/g
Biodistribution Blood [2, 6]: 0.5 ± 0.1 % IA/g
Biodistribution Femur [2, 6]: 1.6 ± 0.3 % IA/g
Biodistribution HT1080.hFAP (FAP-positive tumor) [2, 6]: 4.0 ± 0.6 % IA/g
Biodistribution HT1080.wt (FAP-negative tumor) [2, 6]: 0.9 ± 0.1 % IA/g
Biodistribution Heart [2, 6]: 0.3 ± 0.0 % IA/g
Biodistribution Intestine [2, 6]: 0.3 ± 0.1 % IA/g
Biodistribution Kidney [2, 6]: 1.0 ± 0.1 % IA/g
Biodistribution Liver [2, 6]: 0.6 ± 0.1 % IA/g
Biodistribution Lung [2, 6]: 0.4 ± 0.0 % IA/g
Biodistribution Muscle [2, 6]: 0.4 ± 0.1 % IA/g
Biodistribution Pancreas [2, 6]: 0.5 ± 0.0 % IA/g
Biodistribution Spleen [2, 6]: 0.2 ± 0.0 % IA/g
Biodistribution Stomach [2, 6]: 0.3 ± 0.1 % IA/g
Biodistribution HT-1080.wt ([2]; 1 hour p.i.): 1.4 ± 0.2 % I.A./g
Biodistribution HT-1080.wt ([2]; 4 hours p.i.): 0.9 ± 0.1 % I.A./g
Biodistribution HT-1080.hFAP ([2]; 1 hour p.i.): 3.5 ± 1.0 % I.A./g
Biodistribution HT-1080.hFAP ([2]; 4 hours p.i.): 4.0 ± 0.6 % I.A./g
Structure (SMILES): CN(C(=O)CCC(=O)NCCNC(=O)CC[C@H](C(=O)O)N1CCN2CCN(CC1)CC(=O)[O][61Cu][O]C(=O)C2)c1ccc2nccc(C(=O)NCC(=O)N3CC(F)(F)C[C@H]3C#N)c2c1 [[^61Cu]Cu-NODAGA-F2]
accumulation in tumor and target-positive tissues ([2]; HT-1080.hFAP and HT-1080.wt xenografts): high accumulation in FAP-positive (HT-1080.hFAP) tumor and murine-FAP-positive tissues

Kd [1]: 3 to 3.9 nM
Structure (SMILES): CN(C(=O)CCC(=O)N1CCN(C(=O)CC[C@H](C(=O)O)N2CCN3CCN(CC2)CC(=O)[O][Cu][O]C(=O)C3)CC1)c1ccc2nccc(C(=O)NCC(=O)N3CC(F)(F)C[C@H]3C#N)c2c1 [[^61Cu]Cu-NODAGA-F4]

Biodistribution Adrenal [3]: 19.2 ± 5.35 % IA/g
Biodistribution Blood [3]: 0.25 ± 0.07 % IA/g
Biodistribution Bone [3]: 3.69 ± 1.86 % IA/g
Biodistribution Heart [3]: 0.32 ± 0.10 % IA/g
Biodistribution Intestine [3]: 1.52 ± 0.60 % IA/g
Biodistribution Kidney [3]: 159 ± 31 % IA/g
Biodistribution LNCaP-tumor [3]: 10.2 ± 1.53 % IA/g
Biodistribution Liver [3]: 0.54 ± 0.27 % IA/g
Biodistribution Lung [3]: 1.43 ± 0.43 % IA/g
Biodistribution Muscle [3]: 0.90 ± 0.36 % IA/g
Biodistribution Pancreas [3]: 0.70 ± 0.12 % IA/g
Biodistribution Salivary gland [3]: 1.56 ± 0.31 % IA/g
Biodistribution Spleen [3]: 6.38 ± 1.37 % IA/g
Biodistribution Stomach [3]: 0.69 ± 0.11 % IA/g
Ratio Tumor/Blood [3]: 45.3 ± 19.7
Ratio Tumor/Kidney [3]: 0.07 ± 0.02
Ratio Tumor/Liver [3]: 23.5 ± 12.5
Ratio Tumor/Muscles [3]: 13.6 ± 8.3
log D(O/PBS pH 7.4) [4]: −3.89 ± 0.19
Structure (SMILES): O=C([O-])CN(CCN(CC(=O)[O-])Cc1cc(CCC(=O)NCCCCCC(=O)NCCCC[C@H](NC(=O)N[C@@H](CCC(=O)O)C(=O)O)C(=O)O)ccc1[O-])Cc1cc(CCC(=O)O)ccc1[O-].[68Ga+3].[OH3+] [[^68Ga]Ga-PSMA-11]
